From patent US9382216B2, “Substituted morpholines as modulators for the calcium sensing receptor” (LUPIN LIMITED, priority 2011, dated 2016)
Structures can show the parent of a compound that is named as a salt.

Molecular target: T1, hCaSR (Calcium sensing receptor) in stably transfected HEK293 cells (Homo sapiens, UniProt P41180)
T1 construct: expressed in transfected cells; host or cells: HEK293 (stably transfected)
T1 sequence (P41180 20-1078): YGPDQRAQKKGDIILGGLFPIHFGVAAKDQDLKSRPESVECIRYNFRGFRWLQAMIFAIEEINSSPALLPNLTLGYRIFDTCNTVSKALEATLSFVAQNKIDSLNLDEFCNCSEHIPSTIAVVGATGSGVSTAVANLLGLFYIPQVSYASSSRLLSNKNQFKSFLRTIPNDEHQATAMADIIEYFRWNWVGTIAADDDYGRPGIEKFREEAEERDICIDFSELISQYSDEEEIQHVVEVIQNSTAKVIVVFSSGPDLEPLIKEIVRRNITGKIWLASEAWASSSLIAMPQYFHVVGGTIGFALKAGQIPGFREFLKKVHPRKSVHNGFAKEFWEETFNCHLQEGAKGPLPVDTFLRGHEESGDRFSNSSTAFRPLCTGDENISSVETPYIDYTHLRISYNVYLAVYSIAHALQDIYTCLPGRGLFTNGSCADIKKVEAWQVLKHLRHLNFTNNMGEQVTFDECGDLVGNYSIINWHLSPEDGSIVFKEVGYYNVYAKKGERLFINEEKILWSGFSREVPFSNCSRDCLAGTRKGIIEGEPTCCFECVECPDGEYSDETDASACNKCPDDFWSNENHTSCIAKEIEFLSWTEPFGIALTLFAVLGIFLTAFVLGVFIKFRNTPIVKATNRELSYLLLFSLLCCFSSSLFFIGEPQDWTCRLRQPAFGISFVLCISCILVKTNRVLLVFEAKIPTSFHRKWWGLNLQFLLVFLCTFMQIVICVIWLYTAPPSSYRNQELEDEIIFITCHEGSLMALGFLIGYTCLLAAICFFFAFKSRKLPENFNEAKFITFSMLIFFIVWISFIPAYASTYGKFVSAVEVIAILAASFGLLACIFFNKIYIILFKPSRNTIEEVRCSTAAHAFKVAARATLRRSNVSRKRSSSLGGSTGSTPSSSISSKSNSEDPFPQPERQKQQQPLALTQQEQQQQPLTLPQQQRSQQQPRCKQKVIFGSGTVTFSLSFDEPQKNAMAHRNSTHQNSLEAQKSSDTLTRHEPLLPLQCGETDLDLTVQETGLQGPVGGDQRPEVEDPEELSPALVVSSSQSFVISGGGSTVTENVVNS
Assay: In-vitro assay of calcimimetics through modulation of calcium sensing receptor (CaSR): increase in intracellular calcium, FLIPR
Assay type: cell-based
Conditions: HEK293 cells expressing hCaSR; intracellular calcium (Fluo4NW, FLIPR); 0.3 mM CaCl2; 8-point assay; read-out: EC50 in range
Method: In-Vitro Assay Method of Calcimemtics Through Modulation of Calcium Sensing Receptor (CaSR):
The ability of the compounds to modulate Calcium sensing receptor is determined by measuring an increase in intracellular calcium [Ca^2+i]. Stably transfected HEK293 cells expressing hCaSR_pTriEx-3 hygro vector are developed. Cells are grown overnight on a 96-well plate to 80% confluency in Ham's F12 containing 20% FBS at 37° C., 5% CO2 Subsequently, cells are washed extensively with 20 mM HEPES buffer containing 126 mM NaCl2, 1 mM MgCl2 and 4 mM KCl2 to remove serum components that might interfere with the assay. Cells are loaded with calcium sensing Fluo4NW dye in HEPES base buffer containing 0.1% BSA and 1 mg/ml glucose for 30 minutes to measure changes in intracellular calcium. The activities of the compounds are measured in FLIPR using 0.3 mM CaCl2 in 20 mM HEPES base buffer. The effectiveness of the compound to modulate receptor activity is determined by calculating the EC50 responses for that compound in an 8-point assay and plotted using GraphPad Prism 5.
The compounds prepared were tested using the above assay procedure and the results obtained are given below.

Compound	EC50 [nM]
COc1cccc([C@@H](C)NCC2COCCN2c2cccc(C)c2)c1 (single isomer, unassigned) [10b]	< 20
C[C@@H](NCC1CN(c2cccc(C(F)(F)F)c2)CCO1)c1cccc2ccccc12 (stereo partly drawn) [compound 22]	20 to 50
COc1cccc([C@@H](C)NCC2COCCN2c2cccc(C(F)(F)F)c2)c1 (single isomer, unassigned) [4a]	20 to 50
COc1cccc(N2CCOC(CN[C@H](C)c3cccc4ccccc34)C2)c1 (single isomer, unassigned) [25a]	< 20
C[C@@H](NCC1CN(Cc2cc(F)ccc2F)C(=O)CO1)c1cccc2ccccc12 (single isomer, unassigned) [Example 72a, hydrochloride]	< 20
C[C@@H](NCC1CN(c2ccc(F)cc2)CCO1)c1cccc2ccccc12 (stereo partly drawn) [compound 28]	< 20
Cc1ccc(N2CCOC(CN[C@H](C)c3cccc4ccccc34)C2)cc1 (single isomer, unassigned) [27a]	50 to 200
Cc1cc(N2CCOC(CCN[C@H](C)c3cccc4ccccc34)C2)ccc1C(=O)O (single isomer, unassigned) [Example 104a]	50 to 200
C[C@@H](NCC1CN(c2ccc(C(=O)O)cc2)CCO1)c1cccc2ccccc12 (stereo partly drawn) [Example 147, 4-(2-((((R)-1-(Naphthalen-1-yl)ethyl)amino)methyl)morpholino)benzoic acid hydrochloride]	50 to 200
C[C@@H](NCC1CN(c2ccc(C(F)(F)F)cc2)CCO1)c1cccc2ccccc12 (single isomer, unassigned) [33b]	20 to 50
C[C@@H](NCC1COCCN1Cc1cccc(C(F)(F)F)c1)c1cccc2ccccc12 (single isomer, unassigned) [Example-35b]	20 to 50
Cc1ccc(N2CCOC(CN[C@H](C)c3cccc4ccccc34)C2)cc1 (single isomer, unassigned) [27b]	< 20
C[C@@H](NCC1COCCN1c1ccccc1)c1cccc2ccccc12 (single isomer, unassigned) [Example-1a, hydrochloride]	< 20
CC(C)N1CC(CN[C@H](C)c2cccc3ccccc23)OCC1=O (single isomer, unassigned) [Example 93b, hydrochloride]	50 to 200
COc1cccc(N2CCOC(CN[C@H](C)c3cccc4ccccc34)C2)c1 (single isomer, unassigned) [25b]	20 to 50
C[C@@H](NCC1CN(c2cc(C(=O)O)cc(C(F)(F)F)c2)CCO1)c1cccc2ccccc12 (single isomer, unassigned) [Example 150a, hydrochloride]	< 20
C[C@@H](NCC1CN(c2ccc(F)c(F)c2)C(=O)CO1)c1cccc2ccccc12 (single isomer, unassigned) [62b, hydrochloride]	20 to 50
C[C@@H](NCC1CN(Cc2ccc(F)cc2C(F)(F)F)C(=O)CO1)c1cccc2ccccc12 (stereo partly drawn) [Example 82, 4-(4-Fluoro-2-(trifluoromethyl)benzyl)-6-((((R)-1-(naphthalen-1-yl)ethyl)amino)methyl)morpholin-3-one hydrochloride]	< 20
Cc1cccc(N2CCOCC2CN[C@H](C)c2cccc3ccccc23)c1 (stereo partly drawn) [Example 120, (1R)-1-(Naphthalen-1-yl)-N-((4-(m-tolyl)morpholin-3-yl)methyl)ethanamine hydrochloride]	< 20
COc1cccc([C@@H](C)NCC2COCCN2c2cccc(F)c2)c1 (stereo partly drawn) [compound 15]	20 to 50
C[C@@H](NCCC1CN(c2cccc(OCC(=O)O)c2)CCO1)c1cccc2ccccc12 (single isomer, unassigned) [Example 113a, hydrochloride]	50 to 200
